From PMC6150295, “Synthesis and Biological Evaluation of 2H-Indazole Derivatives: Towards Antimicrobial and Anti-Inflammatory Dual Agents” (Molecules : A Journal of Synthetic Chemistry and Natural …, 2017)

system: Escherichia coli strain EDL933 (EHEC); assay: Disk diffusion susceptibility test; type: cell-based; conditions: 5 mg per disc, 37 °C, 24 h

Structure (SMILES) | Inhibition (positive / none) E. coli 933
COC(=O)c1ccc(-n2cc3ccccc3n2)cc1 [Compound 10, Methyl 4-(2H-indazol-2-yl) benzoate] | -
CS(=O)(=O)c1ccc(-n2cc3ccccc3n2)cc1 [Compound 15, 2-(4-(Methylsulfonyl)phenyl)-2H-indazole] | -
Clc1ccc(-n2nc3ccccc3c2-c2ccccc2)cc1 [Compound 17, 2-(4-Chlorophenyl)-3-phenyl-2H-indazole] | +
O=C(O)c1ccc(-n2nc3ccccc3c2-c2ccccc2)cc1 [Compound 20, 4-(3-Phenyl-2H-indazol-2-yl) benzoic acid] | +
Clc1ccc(-c2c3ccccc3nn2-c2ccccc2)cc1 [Compound 22, 3-(4-Chlorophenyl)-2-phenyl-2H-indazole] | +
O=C(O)c1ccc(-c2c3ccccc3nn2-c2ccccc2)cc1 [Compound 25, 4-(2-Phenyl-2H-indazol-3-yl) benzoic acid] | +

same assay, conditions: Escherichia coli, read-out: Zone of inhibition at 5 mg per disc (mm) E. coli 933

Structure (SMILES) | zone of inhibition at 5000 µg/disc [mm]
Clc1ccc(-n2nc3ccccc3c2-c2ccccc2)cc1 [Compound 17, 2-(4-Chlorophenyl)-3-phenyl-2H-indazole] | 2
O=C(O)c1ccc(-n2nc3ccccc3c2-c2ccccc2)cc1 [Compound 20, 4-(3-Phenyl-2H-indazol-2-yl) benzoic acid] | 2
Clc1ccc(-c2c3ccccc3nn2-c2ccccc2)cc1 [Compound 22, 3-(4-Chlorophenyl)-2-phenyl-2H-indazole] | 1
O=C(O)c1ccc(-c2c3ccccc3nn2-c2ccccc2)cc1 [Compound 25, 4-(2-Phenyl-2H-indazol-3-yl) benzoic acid] | 2

system: Candida albicans; assay: Disk diffusion susceptibility test; type: cell-based; conditions: 5 mg per disc, 37 °C, 24 h

Structure (SMILES) | Inhibition (positive / none) C. albicans
COC(=O)c1ccc(-n2cc3ccccc3n2)cc1 [Compound 10, Methyl 4-(2H-indazol-2-yl) benzoate] | -
CS(=O)(=O)c1ccc(-n2cc3ccccc3n2)cc1 [Compound 15, 2-(4-(Methylsulfonyl)phenyl)-2H-indazole] | -
Clc1ccc(-n2nc3ccccc3c2-c2ccccc2)cc1 [Compound 17, 2-(4-Chlorophenyl)-3-phenyl-2H-indazole] | -
O=C(O)c1ccc(-n2nc3ccccc3c2-c2ccccc2)cc1 [Compound 20, 4-(3-Phenyl-2H-indazol-2-yl) benzoic acid] | -
Clc1ccc(-c2c3ccccc3nn2-c2ccccc2)cc1 [Compound 22, 3-(4-Chlorophenyl)-2-phenyl-2H-indazole] | -
O=C(O)c1ccc(-c2c3ccccc3nn2-c2ccccc2)cc1 [Compound 25, 4-(2-Phenyl-2H-indazol-3-yl) benzoic acid] | +

same assay, conditions: Candida albicans; read-out: Zone of inhibition at 5 mg per disc (mm) C. albicans

Structure (SMILES) | zone of inhibition at 5000 µg/disc [mm]
O=C(O)c1ccc(-c2c3ccccc3nn2-c2ccccc2)cc1 [Compound 25, 4-(2-Phenyl-2H-indazol-3-yl) benzoic acid] | 1

system: Salmonella enterica serovar Typhi; assay: Disk diffusion susceptibility test; type: cell-based; conditions: 5 mg per disc, 37 °C, 24 h

Structure (SMILES) | Inhibition (positive / none) S. Typhi
COC(=O)c1ccc(-n2cc3ccccc3n2)cc1 [Compound 10, Methyl 4-(2H-indazol-2-yl) benzoate] | -
CS(=O)(=O)c1ccc(-n2cc3ccccc3n2)cc1 [Compound 15, 2-(4-(Methylsulfonyl)phenyl)-2H-indazole] | -
Clc1ccc(-n2nc3ccccc3c2-c2ccccc2)cc1 [Compound 17, 2-(4-Chlorophenyl)-3-phenyl-2H-indazole] | -
O=C(O)c1ccc(-n2nc3ccccc3c2-c2ccccc2)cc1 [Compound 20, 4-(3-Phenyl-2H-indazol-2-yl) benzoic acid] | -
Clc1ccc(-c2c3ccccc3nn2-c2ccccc2)cc1 [Compound 22, 3-(4-Chlorophenyl)-2-phenyl-2H-indazole] | -
O=C(O)c1ccc(-c2c3ccccc3nn2-c2ccccc2)cc1 [Compound 25, 4-(2-Phenyl-2H-indazol-3-yl) benzoic acid] | -

same assay, conditions: positive control, ampicillin 25 µg

Structure (SMILES) | Inhibition (positive / none) S. Typhi
CC1(C)S[C@@H]2[C@H](NC(=O)[C@H](N)c3ccccc3)C(=O)N2[C@H]1C(=O)O [Ampicillin, ampicillin, reference compound] | +

system: Entamoeba histolytica strain HM1-IMSS; assay: In vitro antiprotozoal assay (trophozoite subculture method); type: cell-based; conditions: 17 compared with 8; 20 compared to 13; 26 compared to 21
Protocol: (§1) The in vitro antiprotozoal assays against E. histolytica, G. intestinalis, and T. vaginalis of the 2-phenyl-2H-indazole and 2,3-diphenyl-2H-indazole derivatives were carried out following the method previously described. Metronidazole (MTZ) and albendazole (ABZ) were used as reference drugs. […] Similarly, compound 7, having a phenyl at position 2, has good activity against the three protozoa, ranking third in activity for T. vaginalis and forth against G. intestinalis and E. histolytica. […] These derivatives had groups H, COOCH3, Cl, and SO2CH3 at positions 2 and 3, substituents that induced the best response in 2-phenyl-2H-indazole derivatives. In addition, carboxylic acids 20 and 25 were of interest for comparative purposes with ester derivatives.
(§2) Trichomonas vaginalis strain GT3, Giardia intestinalis isolate IMSS:0981:1, and Entamoeba histolytica strain HM1-IMSS were used. Trophozoites of G. intestinalis were maintained in a TYI-S-33 medium supplemented with 10% calf serum and bovine bile. E. histolytica and T. vaginalis trophozoites were maintained in TYI-S-33 medium supplemented with 10% bovine serum. Briefly, 5 × 10^4 trophozoites of G. intestinalis or T. vaginalis, or 6 × 10^3 trophozoites of E. histolytica were incubated for 48 h at 37 °C with different concentrations of the compound to be tested, each added as solutions in DMSO. As a negative control, parasite cultures received an equivalent amount of DMSO only, while albendazole and metronidazole were included as positive controls. At the end of the treatment period, the cells were washed and subcultured for another 48 h in a fresh medium to which no drug was added. […] Experiments were carried out in triplicate and repeated at least twice.

Structure (SMILES) | improvement in potency against E. histolytica relative to the analog
Clc1ccc(-n2nc3ccccc3c2-c2ccccc2)cc1 [Compound 17, 2-(4-Chlorophenyl)-3-phenyl-2H-indazole] | two-fold
O=C(O)c1ccc(-n2nc3ccccc3c2-c2ccccc2)cc1 [Compound 20, 4-(3-Phenyl-2H-indazol-2-yl) benzoic acid] | two-fold

same assay, conditions: Entamoeba histolytica, 48 h, read-out: IC50 (µM) E. histolytica

Structure (SMILES) | IC50 [µM]
CCCSc1ccc2nc(NC(=O)OC)[nH]c2c1 [ABZ, albendazole, reference compound] | 56.5 ± 18.8

same assay, conditions: Entamoeba histolytica; trophozoites, 48 h with compound then 48 h subculture without drug; read-out: IC50 (µM) E. histolytica

Structure (SMILES) | IC50 [µM]
COC(=O)c1ccc(-n2cc3ccccc3n2)cc1 [Compound 10, Methyl 4-(2H-indazol-2-yl) benzoate] | 0.0218 ± 0.0028
CS(=O)(=O)c1ccc(-n2cc3ccccc3n2)cc1 [Compound 15, 2-(4-(Methylsulfonyl)phenyl)-2H-indazole] | 0.136 ± 0.0052
Clc1ccc(-n2nc3ccccc3c2-c2ccccc2)cc1 [Compound 17, 2-(4-Chlorophenyl)-3-phenyl-2H-indazole] | 0.0213 ± 0.0023
O=C(O)c1ccc(-n2nc3ccccc3c2-c2ccccc2)cc1 [Compound 20, 4-(3-Phenyl-2H-indazol-2-yl) benzoic acid] | 0.0445 ± 0.0045
Clc1ccc(-c2c3ccccc3nn2-c2ccccc2)cc1 [Compound 22, 3-(4-Chlorophenyl)-2-phenyl-2H-indazole] | 0.0394
O=C(O)c1ccc(-c2c3ccccc3nn2-c2ccccc2)cc1 [Compound 25, 4-(2-Phenyl-2H-indazol-3-yl) benzoic acid] | 0.0509

system: Giardia intestinalis isolate IMSS:0981:1; assay: as above; type: cell-based; conditions: 16 relative to 7; 20 compared to 13
Protocol: as §1, §2

Structure (SMILES) | improvement in potency against G. intestinalis relative to the analog
O=C(O)c1ccc(-n2nc3ccccc3c2-c2ccccc2)cc1 [Compound 20, 4-(3-Phenyl-2H-indazol-2-yl) benzoic acid] | two-fold

same assay, conditions: Giardia duodenalis, 48 h, read-out: IC50 (µM) G. intestinalis

Structure (SMILES) | IC50 [µM]
CCCSc1ccc2nc(NC(=O)OC)[nH]c2c1 [ABZ, albendazole, reference compound] | 0.037 ± 0.003

same assay, conditions: Giardia duodenalis; trophozoites, 48 h with compound then 48 h subculture without drug; read-out: IC50 (µM) G. intestinalis

Structure (SMILES) | IC50 [µM]
COC(=O)c1ccc(-n2cc3ccccc3n2)cc1 [Compound 10, Methyl 4-(2H-indazol-2-yl) benzoate] | 0.0634 ± 0.0056
CS(=O)(=O)c1ccc(-n2cc3ccccc3n2)cc1 [Compound 15, 2-(4-(Methylsulfonyl)phenyl)-2H-indazole] | 0.09 ± 0.0234
Clc1ccc(-n2nc3ccccc3c2-c2ccccc2)cc1 [Compound 17, 2-(4-Chlorophenyl)-3-phenyl-2H-indazole] | 0.0607 ± 0.0023
O=C(O)c1ccc(-n2nc3ccccc3c2-c2ccccc2)cc1 [Compound 20, 4-(3-Phenyl-2H-indazol-2-yl) benzoic acid] | 0.0795 ± 0.0045
Clc1ccc(-c2c3ccccc3nn2-c2ccccc2)cc1 [Compound 22, 3-(4-Chlorophenyl)-2-phenyl-2H-indazole] | 0.113 ± 0.007
O=C(O)c1ccc(-c2c3ccccc3nn2-c2ccccc2)cc1 [Compound 25, 4-(2-Phenyl-2H-indazol-3-yl) benzoic acid] | 0.121 ± 0.009

system: Trichomonas vaginalis strain GT3; assay: as above; type: cell-based; conditions: 16 relative to 7; 20 compared to 13
Protocol: as §1, §2

Structure (SMILES) | improvement in potency against T. vaginalis relative to the analog
O=C(O)c1ccc(-n2nc3ccccc3c2-c2ccccc2)cc1 [Compound 20, 4-(3-Phenyl-2H-indazol-2-yl) benzoic acid] | three-fold

same assay, conditions: Trichomonas vaginalis, GT3, 48 h, read-out: IC50 (µM) T. vaginalis

Structure (SMILES) | IC50 [µM]
CCCSc1ccc2nc(NC(=O)OC)[nH]c2c1 [ABZ, albendazole, reference compound] | 1.591 ± 0.0113

same assay, conditions: Trichomonas vaginalis, GT3; trophozoites, 48 h with compound then 48 h subculture without drug; read-out: IC50 (µM) T. vaginalis

Structure (SMILES) | IC50 [µM]
COC(=O)c1ccc(-n2cc3ccccc3n2)cc1 [Compound 10, Methyl 4-(2H-indazol-2-yl) benzoate] | 0.107 ± 0.0056
CS(=O)(=O)c1ccc(-n2cc3ccccc3n2)cc1 [Compound 15, 2-(4-(Methylsulfonyl)phenyl)-2H-indazole] | 0.145 ± 0.0026
Clc1ccc(-n2nc3ccccc3c2-c2ccccc2)cc1 [Compound 17, 2-(4-Chlorophenyl)-3-phenyl-2H-indazole] | 0.103 ± 0.0023
O=C(O)c1ccc(-n2nc3ccccc3c2-c2ccccc2)cc1 [Compound 20, 4-(3-Phenyl-2H-indazol-2-yl) benzoic acid] | 0.111 ± 0.018
Clc1ccc(-c2c3ccccc3nn2-c2ccccc2)cc1 [Compound 22, 3-(4-Chlorophenyl)-2-phenyl-2H-indazole] | 0.118 ± 0.0046
O=C(O)c1ccc(-c2c3ccccc3nn2-c2ccccc2)cc1 [Compound 25, 4-(2-Phenyl-2H-indazol-3-yl) benzoic acid] | 0.24 ± 0.0067

system: Escherichia coli strain 042 (EAEC); assay: Disk diffusion susceptibility test; type: cell-based; conditions: 5 mg per disc, 37 °C, 24 h

Structure (SMILES) | Inhibition (positive / none) E. coli 042
COC(=O)c1ccc(-n2cc3ccccc3n2)cc1 [Compound 10, Methyl 4-(2H-indazol-2-yl) benzoate] | -
CS(=O)(=O)c1ccc(-n2cc3ccccc3n2)cc1 [Compound 15, 2-(4-(Methylsulfonyl)phenyl)-2H-indazole] | -
Clc1ccc(-n2nc3ccccc3c2-c2ccccc2)cc1 [Compound 17, 2-(4-Chlorophenyl)-3-phenyl-2H-indazole] | -
O=C(O)c1ccc(-n2nc3ccccc3c2-c2ccccc2)cc1 [Compound 20, 4-(3-Phenyl-2H-indazol-2-yl) benzoic acid] | -
Clc1ccc(-c2c3ccccc3nn2-c2ccccc2)cc1 [Compound 22, 3-(4-Chlorophenyl)-2-phenyl-2H-indazole] | -
O=C(O)c1ccc(-c2c3ccccc3nn2-c2ccccc2)cc1 [Compound 25, 4-(2-Phenyl-2H-indazol-3-yl) benzoic acid] | -

system: not given; assay: not given; conditions: not given

Structure (SMILES) | melting point [°C]
COC(=O)c1ccc(-n2cc3ccccc3n2)cc1 [Compound 10, Methyl 4-(2H-indazol-2-yl) benzoate] | 185.8 to 186.2
CS(=O)(=O)c1ccc(-n2cc3ccccc3n2)cc1 [Compound 15, 2-(4-(Methylsulfonyl)phenyl)-2H-indazole] | 200.6 to 201.5
Clc1ccc(-n2nc3ccccc3c2-c2ccccc2)cc1 [Compound 17, 2-(4-Chlorophenyl)-3-phenyl-2H-indazole] | 124.4 to 125
O=C(O)c1ccc(-n2nc3ccccc3c2-c2ccccc2)cc1 [Compound 20, 4-(3-Phenyl-2H-indazol-2-yl) benzoic acid] | 129.2 to 130.1
Clc1ccc(-c2c3ccccc3nn2-c2ccccc2)cc1 [Compound 22, 3-(4-Chlorophenyl)-2-phenyl-2H-indazole] | 141.1 to 142.8
O=C(O)c1ccc(-c2c3ccccc3nn2-c2ccccc2)cc1 [Compound 25, 4-(2-Phenyl-2H-indazol-3-yl) benzoic acid] | 296.2 to 298.2

system: Candida glabrata; assay: Disk diffusion susceptibility test; type: cell-based; conditions: 5 mg per disc, 37 °C, 24 h

Structure (SMILES) | Inhibition (positive / none) C. glabrata
COC(=O)c1ccc(-n2cc3ccccc3n2)cc1 [Compound 10, Methyl 4-(2H-indazol-2-yl) benzoate] | -
CS(=O)(=O)c1ccc(-n2cc3ccccc3n2)cc1 [Compound 15, 2-(4-(Methylsulfonyl)phenyl)-2H-indazole] | -
Clc1ccc(-n2nc3ccccc3c2-c2ccccc2)cc1 [Compound 17, 2-(4-Chlorophenyl)-3-phenyl-2H-indazole] | -
O=C(O)c1ccc(-n2nc3ccccc3c2-c2ccccc2)cc1 [Compound 20, 4-(3-Phenyl-2H-indazol-2-yl) benzoic acid] | +
Clc1ccc(-c2c3ccccc3nn2-c2ccccc2)cc1 [Compound 22, 3-(4-Chlorophenyl)-2-phenyl-2H-indazole] | +
O=C(O)c1ccc(-c2c3ccccc3nn2-c2ccccc2)cc1 [Compound 25, 4-(2-Phenyl-2H-indazol-3-yl) benzoic acid] | -

same assay, conditions: Nakaseomyces glabratus; read-out: Zone of inhibition at 5 mg per disc (mm) C. glabrata

Structure (SMILES) | zone of inhibition at 5000 µg/disc [mm]
O=C(O)c1ccc(-n2nc3ccccc3c2-c2ccccc2)cc1 [Compound 20, 4-(3-Phenyl-2H-indazol-2-yl) benzoic acid] | 2
Clc1ccc(-c2c3ccccc3nn2-c2ccccc2)cc1 [Compound 22, 3-(4-Chlorophenyl)-2-phenyl-2H-indazole] | 2
